Results on 3 compounds are retold here after patent US8033977B2, “Methods of enhancing radiation effects with metal nanoparticles” (NanoProbes, Inc., priority 1998, dated 2011).

Data set [1] has as its system cellular DNA. To be noted: after incorporation into cellular DNA in vitro; 22-45% of thymine substituted; cited from earlier work.
Data set [2] deals with CD1 mice. The experiment in a line: In vivo tolerance of tungsten heteropolyanions in mice. To be noted: injected into CD1 mice. The protocol: A column containing carboxymethyl cellulose medium was prepared and charged with tetramethylammonium acetate, then rinsed with deionized water. Silicotungstic acid (H4SiW12O40.30H2O, 10 mg/ml in water) was injected onto the column and ion exchanged to produce the cluster surrounded and charge-shielded by quaternary ammonium ions.
A complex between the quaternary cation, tetramethylammonium was also formed by mixing equimolar amounts of H4SiW12O40.30H2O, 10 mg/ml in water and tetramethylammonium bromide, 100 mg/ml in water. Some white precipitate was formed that was removed by centrifugation at 13 k×g for 10 minutes, then filtering through a molecular filter, Amicon Centricon 30, that only passes molecules less than 30,000 Daltons. […] Dilutions were prepared and injected into CD1 mice. Good tolerance and normal weight gain was found at blood concentrations of approximately 5 mg/ml, whereas the uncomplexed heteropoltungstate was lethal at 1 mg/ml.

Data set [3] relates to test animal tumor models. To be noted: co-administered with PALA, tetrahydrouridine and 5-fluoro-2′deoxyctidine, fractionated x-ray treatments; cited from earlier work.

Take `O=c1[nH]c(=O)n([C@H]2C[C@H](O)[C@@H](CO)O2)cc1I` [iododeoxyuridine]: the “radiotherapeutic advantage (factor)” value in data set [1] was “about 3”.

With “Silicotungstic acid [uncomplexed heteropoltungstate]”, in data set [2], the lethal blood concentration was 1 mg/mL.

Consider `Nc1nc(=O)n([C@H]2C[C@H](O)[C@@H](CO)O2)cc1Cl` [5-chloro-2′-deoxycytidine], for which the dose enhancement entry in data set [3] is “threefold”.
